Experimental data: US20240109853A1 (Shanghai Yao Yuan Biotechnology Co., Ltd., priority 2020, published 2024)

Target: ALPK1 (Homo sapiens (Human), UniProt Q96QP1)
Assay: ALPK1 in vitro kinase assay (HTRF of TIFA phosphorylation)
Assay type: biochemical
Conditions: not given
Excerpt: In embodiments, a compound of Formula I, or a subembodiment described herein, is an inhibitor of ALPK1 as measured, for example, in an in vitro kinase assay, or an assay designed to measure the activation of downstream targets of ALPK1 pathway activation, for example NFkB transcriptional activation and the secretion of proinflammatory cytokines and chemokines, such as IL-8, which is also referred to as CXCL-8. In general, the computer program XL fit was used for data analysis, including non-linear regression analysis. The half maximal inhibitory concentration (IC50) was used as the measure of a compound's effectiveness in the assays. IC50 values were determined using the following logistic equation Y=min+(max−min)/(1+(X/IC50^−hillslpoe), where Y is the value at the compound concentration, X. The concentration response curve fitting was conducted using GraphPad Prism version 6.00 software.
ALPK1 kinase activity was measured in an in vitro assay using ADP-Heptose as the ALPK1 ligand and activator of its kinase activity and TIFA protein as the ALPK1 phosphorylation substrate. Since phosphorylated TIFA proteins oligomerize, Homogeneous Time-Resolved Fluorescence (HTRF) was used to measure protein:protein interaction between HA-tagged TIFA proteins as an indicator of TIFA phosphorylation.
In brief, dose-response studies were performed with HEK293 cells cultured in Dulbecco's Modified Eagle Medium (DMEM) supplemented 10% fetal bovine serum (FBS, Hyclone™) containing antibiotics (pen/strep, G418) in 384-well assay plates. Each well contained 0.1 mg TIFA, ALPK1 (2 nM final concentration in reaction mixture) and kinase buffer (100 mM of HEPES pH 7.4, 4 mM DTT, 40 mM MgCl2, 20 mM of β-Glycerol phosphate disodium salt, 0.4 mM of Na3VO4, 0.16 mg/mL). Titrations of the test compounds were prepared in dimethylsulphoxide (DMSO). The reaction was initiated by addition of ATP and ADP-Heptose.
For HTRF, samples were incubated with a Tb cryptate-labeled anti-HA antibody for capturing HA-tagged proteins according to the manufacturer's instructions (PerkinElmer™, CisBio™) and the fluorescence signal was quantified (Tecan Infinite F NANO+). HTRF signals were calculated as the HTRF ratio (ratio of fluorescence measured at 665 nm and 620 nm)×104 (thereby using the signal at 620 nm as an internal standard).
IC50 values were determined using 3- or 4-parameter logistic equation using GraphPad Prism version 6.00. The reference compound, A027, was used as a positive control for each plate.

ALPK1, sequence (Q96QP1 whole entry): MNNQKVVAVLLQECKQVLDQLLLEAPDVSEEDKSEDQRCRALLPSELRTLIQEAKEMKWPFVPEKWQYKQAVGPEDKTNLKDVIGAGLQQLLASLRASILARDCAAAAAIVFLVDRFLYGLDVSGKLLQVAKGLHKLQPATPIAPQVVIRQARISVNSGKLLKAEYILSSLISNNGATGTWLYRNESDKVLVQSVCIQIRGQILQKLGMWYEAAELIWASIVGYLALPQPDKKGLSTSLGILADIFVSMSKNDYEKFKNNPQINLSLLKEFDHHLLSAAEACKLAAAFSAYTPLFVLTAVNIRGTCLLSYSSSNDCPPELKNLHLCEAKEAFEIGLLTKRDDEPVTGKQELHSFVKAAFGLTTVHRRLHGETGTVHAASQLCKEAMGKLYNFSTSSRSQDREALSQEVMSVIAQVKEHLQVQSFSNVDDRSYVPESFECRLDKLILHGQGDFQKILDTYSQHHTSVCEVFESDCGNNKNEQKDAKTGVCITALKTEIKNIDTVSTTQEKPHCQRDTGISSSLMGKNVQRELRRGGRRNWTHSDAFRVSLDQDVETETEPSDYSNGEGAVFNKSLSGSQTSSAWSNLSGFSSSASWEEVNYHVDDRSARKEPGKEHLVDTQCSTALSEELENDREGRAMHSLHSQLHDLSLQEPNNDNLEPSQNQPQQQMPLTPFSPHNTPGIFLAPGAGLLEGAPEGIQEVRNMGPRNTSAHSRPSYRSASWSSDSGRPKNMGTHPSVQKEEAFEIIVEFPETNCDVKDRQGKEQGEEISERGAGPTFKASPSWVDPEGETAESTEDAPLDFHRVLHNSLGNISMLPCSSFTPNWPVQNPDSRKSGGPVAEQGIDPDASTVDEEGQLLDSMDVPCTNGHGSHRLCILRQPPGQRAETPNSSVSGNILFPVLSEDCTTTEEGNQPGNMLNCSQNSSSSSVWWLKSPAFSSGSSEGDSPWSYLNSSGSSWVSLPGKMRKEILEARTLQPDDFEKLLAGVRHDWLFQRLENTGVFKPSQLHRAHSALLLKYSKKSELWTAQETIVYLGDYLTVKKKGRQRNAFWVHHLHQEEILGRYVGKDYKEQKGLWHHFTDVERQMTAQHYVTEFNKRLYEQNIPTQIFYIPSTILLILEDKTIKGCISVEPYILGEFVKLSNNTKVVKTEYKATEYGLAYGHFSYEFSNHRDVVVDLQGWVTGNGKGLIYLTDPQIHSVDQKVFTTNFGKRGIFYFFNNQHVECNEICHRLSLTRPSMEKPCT

Compound	IC50
COc1ccc(C(C)(C)c2csc(NC(=O)NCc3ccc(N4CCC(O)C4)cc3)n2)cc1 (centres unmarked) [Example A069, 1-(4-(3-hydroxypyrrolidin-1-yl)benzyl)-3-(4-(2-(4-methoxyphenyl)propan-2-yl)thiazol-2-yl)urea]	269 nM
COc1ccc(C(C)(C)c2csc(NC(=O)NCCCC(=O)NC3CCNCC3)n2)cc1 [Example A071, 4-(3-(4-(2-(4-methoxyphenyl)propan-2-yl)thiazol-2-yl)ureido)-N-(piperidin-4-yl)butanamide]	64 nM
COc1ccc(C(C)(C)c2csc(NC(=O)NCC(=O)CO)n2)cc1 [Example A074, 1-(3-hydroxy-2-oxopropyl)-3-(4-(2-(4-methoxyphenyl)propan-2-yl)thiazol-2-yl)urea]	61 nM
CC(C)(c1ccc(Br)cc1)c1csc(NC(=O)NCc2cnc(N3CCC(N)C3)nc2)n1 (centres unmarked) [Example A078, 1-((2-(3-aminopyrrolidin-1-yl)pyrimidin-5-yl)methyl)-3-(4-(2-(4-bromophenyl)propan-2-yl)thiazol-2-yl)urea]	8 nM
Cc1nc(CNC(=O)Nc2nc(C(C)(C)c3ccc(Br)cc3)cs2)cc(N2CCNCC2)n1 [Example A095, 1-(4-(2-(4-bromophenyl)propan-2-yl)thiazol-2-yl)-3-((2-methyl-6-(piperazin-1-yl)pyrimidin-4-yl)methyl)urea]	32 nM
COc1ccc(CNC(=O)Nc2nc(C(C)(C)c3ccc(Br)cc3)cs2)cc1F [Example A107, 1-(4-(2-(4-bromophenyl)propan-2-yl)thiazol-2-yl)-3-(3-fluoro-4-methoxybenzyl)urea]	216 nM
COc1ccc(C(C)(C)c2csc(NC(=O)NCc3ccc(NCCO)cc3)n2)cc1 [Example A109, 1-(4-((2-hydroxyethyl)amino)ben-zyl)-3-(4-(2-(4-methoxyphenyl)propan-2-yl)thiazol-2-yl)urea]	146 nM
CC(C)(c1ccc(Br)cc1)c1csc(NC(=O)NCc2cnc(N3CCNC(=O)C3)c(F)c2)n1 [Example A112, 1-(4-(2-(4-bromophenyl)propan-2-yl)thiazol-2-yl)-3-((5-fluoro-6-(3-oxopiperazin-1-yl)pyridin-3-yl)methyl)urea]	334 nM
CC(C)(c1ccc(Br)cc1)c1csc(NC(=O)NCc2cnc(N3CCNC(=O)C3)nc2)n1 [Example A113, 1-(4-(2-(4-bromophenyl)propan-2-yl)thiazol-2-yl)-3-((2-(3-oxopiperazin-1-yl)pyrimidin-5-yl)methyl)urea]	126 nM
COc1ccc(C(C)(C)c2csc(NC(=O)NCCCC(N)=O)n2)cc1 [Example A114, 4-(3-(4-(2-(4-methoxyphenyl)propan-2-yl)thiazol-2-yl)ureido)butanamide]	260 nM
CNC(=O)Nc1nc(C(C)(C)c2ccc(OC)cc2)cs1 [Example A143, 1-(4-(2-(4-methoxyphenyl)propan-2-yl)thiazol-2-yl)-3-methylurea]	53 nM
O=C(NCc1cnc(N2CCNCC2)nc1)Nc1nc(C2(c3ccc(Br)cc3)CCCC2)cs1 [Example A180, 1-(4-(1-(4-bromophenyl)cyclopent-yl)thiazol-2-yl)-3-((2-(piperazin-1-yl)pyrimidin-5-yl)methyl)urea]	45 nM
COc1ccc(C(C)(C)c2csc(NC(=O)NCc3ccc(N4CCC(N)C4)cc3)n2)cc1 (centres unmarked) [Example A184, 1-(4-(3-aminopyrrolidin-1-yl)benzyl)-3-(4-(2-(4-methoxyphenyl)propan-2-yl)thiazol-2-yl)urea]	242 nM
COc1ccc(C(C)(C)c2csc(NC(=O)NCc3ccc(N4CCNCC4)c(C(=O)N(C)C)c3)n2)cc1 [Example A185, 5-((3-(4-(2-(4-methoxyphenyl)propan-2-yl)thiazol-2-yl)ureido)methyl)-N,N-dimethyl-2-(piperazin-1-yl)benzamide]	56 nM
COc1ccc(C(C)(C)c2csc(NC(=O)NCCCCN)c2)cc1 [Example A188, 1-(4-aminobutyl)-3-(4-(2-(4-methoxyphenyl)propan-2-yl)thiophen-2-yl)urea]	59 nM
CC(C)(c1ccc(Br)cc1)c1csc(NC(=O)NCc2ccc(N3CCCNCC3)c(F)c2)n1 [Example A197, 1-(4-(1,4-diazepan-1-yl)-3-fluorobenzyl)-3-(4-(2-(4-bromophenyl)propan-2-yl)thiazol-2-yl)urea]	67 nM
COc1ccc(C(C)(C)c2csc(NC(=O)NCc3ccc(N4CCC(N)C4)nc3)n2)cc1 (centres unmarked) [Example A199, 1-((6-(3-aminopyrrolidin-1-yl)pyridin-3-yl)methyl)-3-(4-(2-(4-methoxyphenyl)propan-2-yl)thiazol-2-yl)urea]	34 nM
CC(C)(c1ccc(Br)cc1)c1csc(NC(=O)NCc2cnc(NCCN3CCNCC3)nc2)n1 [Example A206, 1-(4-(2-(4-bromophenyl)propan-2-yl)thiazol-2-yl)-3-((2-((2-(piperazin-1-yl)ethyl)amino)pyrimidin-5-yl)methyl)urea]	68 nM
COc1ccc(C(C)(C)c2csc(NC(=O)NCc3cnc(N4CCNCC4)c(C(N)=O)c3)n2)cc1 [Example A209, 5-((3-(4-(2-(4-methoxyphenyl)propan-2-yl)thiazol-2-yl)ureido)methyl)-2-(piperazin-1-yl)nicotinamide]	43 nM
C#C[C@](C)(c1ccc(OC)cc1)c1csc(NC(=O)N2CC(CO)C2)n1 [Example A255, (R)-3-(hydroxymethyl)-N-(4-(2-(4-methoxyphenyl)but-3-yn-2-yl)thiazol-2-yl)azetidine-1-carboxamide]	688 nM
C#CC(C)(c1ccc(Cl)cc1)c1csc(NC(=O)N(C)CCO)n1 (centres unmarked) [Example A266, 3-(4-(2-(4-chlorophenyl)but-3-yn-2-yl)thiazol-2-yl)-1-(2-hydroxyethyl)-1-methylurea]	546 nM
C#CC(C)(c1ccc(Cl)cc1)c1csc(NC(=O)N(CCO)CCO)n1 (centres unmarked) [Example A267, 3-(4-(2-(4-chlorophenyl)but-3-yn-2-yl)thiazol-2-yl)-1,1-bis(2-hydroxyethyl)urea]	171 nM

Same assay, conditions: ALPK1 2 nM, TIFA substrate, ADP-Heptose activator, HTRF readout

Compound	IC50
COc1ccc(C(C)(C)c2csc(NC(=O)c3ccc(N4CCNCC4)cc3)n2)cc1 [Example B001, N-(4-(2-(4-methoxyphenyl)propan-2-yl)thiazol-2-yl)-4-(piperazin-1-yl)benzamide]	123 nM
CC(C)(c1ccc(Br)cc1)c1csc(NC(=O)c2ccc3[nH]ccc3c2)n1 [Example B002, N-(4-(2-(4-bromophenyl)propan-2-yl)thiazol-2-yl)-1H-indole-5-carboxamide]	206 nM
CC(C)(c1ccc(Br)cc1)c1csc(NC(=O)c2ccc(C(N)=O)cc2)n1 [Example B003, N-(4-(2-(4-bromophenyl)propan-2-yl)thiazol-2-yl)terephthalamide]	192 nM
COc1ccc(C(C)(C)c2csc(NC(=O)c3cccc(N4CCNCC4)c3)n2)cc1 [Example B004, N-(4-(2-(4-methoxyphenyl)propan-2-yl)thiazol-2-yl)-3-(piperazin-1-yl)benzamide]	211 nM
COc1ccc(C(C)(C)c2csc(NC(=O)c3cccc(CN4CCNCC4)c3)n2)cc1 [Example B005, N-(4-(2-(4-methoxyphenyl)propan-2-yl)thiazol-2-yl)-3-(piperazin-1-ylmethyl)benzamide]	215 nM
COc1ccc(C(C)(C)c2csc(NC(=O)c3ccc(N4CCN(CCO)CC4)cc3)n2)cc1 [Example B006, 4-(4-(2-hydroxyethyl)piperazin-1-yl)-N-(4-(2-(4-methoxyphenyl)propan-2-yl)thiazol-2-yl)benzamide]	595 nM
COc1ccc(C(C)(C)c2csc(NC(=O)c3cccc(N4CCN(CCO)CC4)c3)n2)cc1 [Example B007, 3-(4-(2-hydroxyethyl)piperazin-1-yl)-N-(4-(2-(4-methoxyphenyl)propan-2-yl)thiazol-2-yl)benzamide]	230 nM
COc1ccc(C(C)(C)c2csc(NC(=O)c3ccc(N4CCNCC4)cc3Cl)n2)cc1 [Example B008, 2-chloro-N-(4-(2-(4-methoxyphenyl)propan-2-yl)thiazol-2-yl)-4-(piperazin-1-yl)benzamide]	37 nM
COc1ccc(C(C)(C)c2csc(NC(=O)c3ccc(N4CCC(O)C4)cc3)n2)cc1 (centres unmarked) [Example B009, 4-(3-hydroxypyrrolidin-1-yl)-N-(4-(2-(4-methoxyphenyl)propan-2-yl)thiazol-2-yl)benzamide]	951 nM
COc1ccc(C(C)(C)c2csc(NC(=O)c3ccc(N4CCC(N(C)C)C4)nc3)n2)cc1 (centres unmarked) [Example B010, 6-(3-(dimethylamino)pyrrolidin-1-yl)-N-(4-(2-(4-methoxyphenyl)propan-2-yl)thiazol-2-yl)nicotinamide]	187 nM
